This is an account of results in patent US20240336972A1, “METHODS FOR SELECTING MELANOMA PATIENTS FOR THERAPY AND METHODS OF REDUCING OR PREVENTING MELANOMA METASTASIS” (Oregon Health & Science University, priority 2021, published 2024).

One assay concerns A375 melanoma cells. In words: RNA-seq of A375 melanoma cells before and after treatment with fluvastatin. Format: cell-based, human. As for the experimental part: Characterization of the transcriptome in human melanoma cells exposed to fluvastatin The effect of statins on the melanoma transcriptome was characterized using a well-established melanoma cell line. Human melanoma cell line A375 (a generous gift of Dr John Letterio, Case Western Reserve University, Cleveland, OH) were maintained in standard growth media consisting of RPMI 1640 (Thermo Fisher Scientific, Waltham, MA) b 10% fetal bovine serum p 2 mM glutamine and grown in a 5% carbon dioxide-humidified atmosphere at 37° C. Cells were tested biannually and shown to be negative for mycoplasma contamination using the Mycoplasma Detection kit (MycoAlert, Lonza, Basel, Switzerland). For gene expression studies, A375 cells were seeded at 2.5E6 per […] and allowed to adhere overnight. Test samples (in triplicate) were treated with fluvastatin (purchased from Millipore Sigma, St. […] Untreated control cells grown side by side were used as the reference control for differential expression analysis. RNA was quantified using the Qubit Broad Range RNA kit (catalog #Q10210; Thermo Fisher Scientific) and diluted to 50 ng/ml for RNA-seq.
Sequencing reads generated from the Illumina HiSeq platform (Illumina, San Diego, CA) were assessed for quality and trimmed for adapter sequences using TrimGalore!, version 0.4.2 (Babraham Bioinformatics, Cambridge, United Kingdom), a wrapper script for FastQC and cutadapt. Reads that passed quality control were subsequently aligned to the human reference genome (GRCh38) using STAR aligner, version 2.5.1. Sequence alignment was guided using the GENCODE annotation for hg38. The aligned reads were analyzed for differential expression using Cufflinks, version 2.2.1, an RNA-seq analysis package that reports the fragments per kilobase of exon per million mapped for each gene. A differential analysis report was generated using the cuffdiff command performed in a pairwise manner for each group. Differential genes were identified using a significance cutoff of q<0.05. The differential expression profiles were then used as input in iPathwayGuide (Advaita Bioinformatics, Ann Arbor, MI) for pathway analysis.

In a further assay the test system is A375 cells. Particulars: cited from earlier work.
The next assay concerns melanoma metastasis. The settings on record: mouse, in vivo; cited from earlier work.
In assay [1] the test system is melanocytic atypia and melanoma initiation markers. The settings on record: in vivo; cited from earlier work.
Where [2] appears, read: fluvastatin 3 µM, 24 hours, vs untreated control.
Where [3] appears, read: fluvastatin 3 µM, 24 hours, vs untreated control, SkylineDx profile gene.

Entries after “also recorded” stand apart in the source; their conditions may differ.

On to `CC(C)n1c(/C=C/C(O)CC(O)CC(=O)O)c(-c2ccc(F)cc2)c2ccccc21` (centres unmarked) [Fluvastatin], for which, in the assay with A375 melanoma cells, the “expression of genes included in melanoma prognostic tests (DecisionDx-Melanoma, Merlin Assay)” value is on record as “significantly altered” and the “expression of genes used in a diagnostic test that distinguishes melanoma from nevi (myPath Melanoma)” value is “did not alter; also recorded: did not affect”. In addition, in the assay with A375 melanoma cells (3 μM concentration for 24 hours), the “effect on the metastatic gene expression profile of melanoma” value is listed as “effectively reverses”. Also, the SLC16A1 fold change in the assay with A375 melanoma cells (after fluvastatin exposure, q=0.062, not statistically significant) is given as 0.797. In the assay with A375 melanoma cells (setting [2]), the “BUB1 Log2 Fold Change” value is −0.7319, the “CCND3 Log2 Fold Change” value is listed as −0.7194, the “CDKN1A Log2 Fold Change” value is reported as 1.3053 and the “CDKN1C Log2 Fold Change” value turned out to be 3.2643. For the same molecule, in the assay on A375 melanoma cells (setting [2]), the “CUL1 Log2 Fold Change” value is recorded as −0.3847, the “FGF2 Log2 Fold Change” value was −0.5791, the “KIFC1 Log2 Fold Change” value is on record as −0.4213 and the “MAGEA1 Log2 Fold Change” value is on record as −0.4357. Further, in the assay with A375 melanoma cells (setting [2]), the “MAGEA3 Log2 Fold Change” value is given as −0.4574, the “MAGEA4 Log2 Fold Change” value is on record as −0.2919, the “MAGEA6 Log2 Fold Change” value is on record as −0.4529 and the “MAGED1 Log2 Fold Change” value is reported as 0.7222. For the same molecule, in the assay with A375 melanoma cells (setting [2]), the “S1PR5 Log2 Fold Change” value is recorded as −1.3212, the “SOX4 Log2 Fold Change” value was −0.4139 and the “TGFBRAP1 Log2 Fold Change” value was −0.3389. Moreover, the “AQP3 Log2 Fold Change” value in the assay on A375 melanoma cells (fluvastatin 3 µM, 24 hours, vs untreated control, Castle Biosciences profile gene) turned out to be 3.2162. Besides, the “K14 Log2 Fold Change” value with A375 melanoma cells (fluvastatin 3 µM, 24 hours, vs untreated control, Castle Biosciences profile gene (keratin 14)) was 2.8530. In addition, in the assay with A375 melanoma cells (setting [3]), the “CXCL8 Log2 Fold Change” value came out at 0.8218, the “ITGB3 Log2 Fold Change” value amounted to 0.5304 and the “PLAT Log2 Fold Change” value was 1.7389. Also, in the assay on A375 melanoma cells (significance cutoff q<0.05), the “differentially expressed genes identified” value is 2,615.
As to `CC(C)c1c(C(=O)Nc2ccccc2)c(-c2ccccc2)c(-c2ccc(F)cc2)n1CC[C@@H](O)C[C@@H](O)CC(=O)O` [atorvastatin, Atorvastatin], the migration and invasion result with A375 cells (Matrigel transwell assay) is “decreasing”. Also, the “isoprenylation of RhoC” value with A375 cells is reported as “decreases”. Further, the metastasis entry with melanoma metastasis is “decreasing”.
For the molecule `CC[C@H](C)C(=O)O[C@H]1C[C@@H](C)C=C2C=C[C@H](C)[C@H](CC[C@@H]3C[C@@H](O)CC(=O)O3)[C@H]21` [lovastatin, Lovastatin], the “melanocytic atypia or other melanoma initiation markers” value in assay [1] is “did not identify any significant decreases”.
